Assay results as given in ChEMBL document CHEMBL1201861, “Genomics of Drug Sensitity in Cancer screening data, Wellcome Trust Sanger Institute”.
pIC50: −log10 of the molar value.

How the values were obtained:
Assay in all cases: cells
[1] = tested on: COLO-824; format: functional, cell-based, Homo sapiens; conditions: Homo sapiens, COLO-824
Description: SANGER: Inhibition of human COLO-824 cell growth in a cell viability assay.

[2] = tested on: COR-L88; format: functional, cell-based, Homo sapiens; conditions: Homo sapiens, COR-L88;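 further: growth inhibition of COR-L88 cells, read out with a cell viability assay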
Description: SANGER: Inhibition of human COR-L88 cell growth in a cell viability assay.

[3] = tested on: CTV-1; format: functional, cell-based, Homo sapiens; conditions: Homo sapiens, CTV-1;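 further: growth inhibition of the cell line, read out with a cell viability assay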
Description: SANGER: Inhibition of human CTV-1 cell growth in a cell viability assay.

[4] = tested on: Calu-6; format: functional, cell-based, Homo sapiens; conditions: Homo sapiens, Calu-6;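 further: growth of human Calu-6 cells, read out by a cell viability assay, IC50 marking inhibition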
Description: SANGER: Inhibition of human Calu-6 cell growth in a cell viability assay.

[5] = tested on: D-247MG; format: functional, cell-based; conditions: Homo sapiens
Description: SANGER: Inhibition of human D-247MG cell growth in a cell viability assay.

[6] = tested on: D283 Med; format: functional, cell-based, Homo sapiens; conditions: Homo sapiens, D283 Med
Description: SANGER: Inhibition of human D-283MED cell growth in a cell viability assay.

[7] = tested on: D-502MG; format: functional, cell-based, Homo sapiens; conditions: Homo sapiens, D-502MG
Description: SANGER: Inhibition of human D-502MG cell growth in a cell viability assay.

[8] = tested on: EKVX; format: functional, cell-based, Homo sapiens; conditions: Homo sapiens, EKVX;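 further: growth inhibition of human EKVX cells, read out with a cell viability assay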
Description: SANGER: Inhibition of human EKVX cell growth in a cell viability assay.

[9] = tested on: ETK-1; format: functional, cell-based, Homo sapiens; conditions: Homo sapiens, ETK-1;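 further: growth inhibition of human ETK-1 cells, read out with a cell viability assay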
Description: SANGER: Inhibition of human ETK-1 cell growth in a cell viability assay.

[10] = tested on: EW-11; format: functional, cell-based, Homo sapiens; conditions: Homo sapiens, EW-11;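 further: growth inhibition of human EW-11 cells, measured with a cell viability assay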
Description: SANGER: Inhibition of human EW-11 cell growth in a cell viability assay.

[11] = tested on: EW-18; format: functional, cell-based, Homo sapiens; conditions: Homo sapiens, EW-18; read-out: IC50;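 further: growth inhibition of EW-18 cells, read out by a cell viability assay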
Description: SANGER: Inhibition of human EW-18 cell growth in a cell viability assay.

[12] = tested on: GR-ST; format: functional, cell-based, Homo sapiens; conditions: Homo sapiens, GR-ST
Description: SANGER: Inhibition of human GR-ST cell growth in a cell viability assay.

[13] = tested on: HCE-T; format: functional, cell-based, Homo sapiens; conditions: Homo sapiens, HCE-T;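 further: cell viability assay read-out, reporting inhibition of HCE-T cell growth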
Description: SANGER: Inhibition of human HCE-T cell growth in a cell viability assay.

[14] = tested on: IA-LM; format: functional, cell-based; conditions: Homo sapiens;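 further: cell viability assay measuring growth inhibition of human IA-LM cells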
Description: SANGER: Inhibition of human IA-LM cell growth in a cell viability assay.

[15] = tested on: KARPAS-45; format: functional, cell-based, Homo sapiens; conditions: Homo sapiens, KARPAS-45;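 further: inhibition of cell line growth, read out through a viability assay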
Description: SANGER: Inhibition of human KARPAS-45 cell growth in a cell viability assay.

[16] = tested on: KM12; format: functional, cell-based, Homo sapiens; conditions: Homo sapiens, KM12;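 further: KM12 cell growth inhibition, read out with a cell viability assay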
Description: SANGER: Inhibition of human KM12 cell growth in a cell viability assay.

[17] = tested on: KNS-81-FD; format: functional, cell-based, Homo sapiens; conditions: Homo sapiens, KNS-81-FD;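 further: growth inhibition of KNS-81-FD cells, read out with a cell viability assay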
Description: SANGER: Inhibition of human KNS-81-FD cell growth in a cell viability assay.

[18] = tested on: KY821; format: functional, cell-based, Homo sapiens; conditions: Homo sapiens, KY821;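 further: growth inhibition of human KY821 cells, read out by a cell viability assay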
Description: SANGER: Inhibition of human KY821 cell growth in a cell viability assay.

[19] = tested on: LB1047-RCC; format: functional, cell-based, Homo sapiens; conditions: Homo sapiens, LB1047-RCC;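 further: inhibition of cell growth, determined with a cell viability assay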
Description: SANGER: Inhibition of human LB1047-RCC cell growth in a cell viability assay.

[20] = tested on: LB831-BLC; format: functional, cell-based, Homo sapiens; conditions: Homo sapiens, LB831-BLC;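 further: growth inhibition of LB831-BLC cells, read out with a cell viability assay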
Description: SANGER: Inhibition of human LB831-BLC cell growth in a cell viability assay.

[21] = tested on: LS-1034; format: functional, cell-based, Homo sapiens; conditions: Homo sapiens, LS-1034
Description: SANGER: Inhibition of human LS-1034 cell growth in a cell viability assay.

[22] = tested on: LS-411N; format: functional, cell-based, Homo sapiens; conditions: Homo sapiens, LS-411N
[23] = tested on: MFM-223; format: functional, cell-based, Homo sapiens; conditions: Homo sapiens, MFM-223
Description: SANGER: Inhibition of human MFM-223 cell growth in a cell viability assay.

[24] = tested on: MHH-PREB-1; format: functional, cell-based, Homo sapiens; conditions: Homo sapiens, MHH-PREB-1;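 further: cell viability assay measuring inhibition of proliferation of human MHH-PREB-1 cells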
Description: SANGER: Inhibition of human MHH-PREB-1 cell growth in a cell viability assay.

[25] = tested on: MLMA; format: functional, cell-based, Homo sapiens; conditions: Homo sapiens, MLMA;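 further: growth inhibition of MLMA cells (human), determined through a cell viability readout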
Description: SANGER: Inhibition of human MLMA cell growth in a cell viability assay.

[26] = tested on: MPP-89; format: functional, cell-based, Homo sapiens; conditions: Homo sapiens, MPP-89;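 further: growth inhibition of human MPP-89 cells, read out with a cell viability assay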
Description: SANGER: Inhibition of human MPP-89 cell growth in a cell viability assay.

[27] = tested on: MS-1; format: functional, cell-based, Homo sapiens; conditions: Homo sapiens, MS-1;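 further: growth inhibition of MS-1 cells, read out by cell viability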
Description: SANGER: Inhibition of human MS-1 cell growth in a cell viability assay.

[28] = tested on: NCI-H1304; format: functional, cell-based, Homo sapiens; conditions: Homo sapiens, NCI-H1304;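 further: growth inhibition of the cancer cell line, measured in a cell viability assay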
Description: SANGER: Inhibition of human NCI-H1304 cell growth in a cell viability assay.

[29] = tested on: NCI-H1770; format: functional, cell-based, Homo sapiens; conditions: Homo sapiens, NCI-H1770;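 further: growth inhibition of NCI-H1770 cells determined with a viability readout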
Description: SANGER: Inhibition of human NCI-H1770 cell growth in a cell viability assay.

[30] = tested on: NCI-H446; format: functional, cell-based, Homo sapiens; conditions: Homo sapiens, NCI-H446;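 further: growth inhibition of NCI-H446 cells determined by a cell viability assay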
Description: SANGER: Inhibition of human NCI-H446 cell growth in a cell viability assay.

[31] = tested on: NCI-H526; format: functional, cell-based, Homo sapiens; conditions: Homo sapiens, NCI-H526;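 further: growth inhibition of the human NCI-H526 cell line, measured by a cell viability assay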
Description: SANGER: Inhibition of human NCI-H526 cell growth in a cell viability assay.

[32] = tested on: P30-OHK; format: functional, cell-based, Homo sapiens; conditions: Homo sapiens, P30-OHK;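 further: growth inhibition of the P30-OHK cell line, read out with a cell viability assay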
Description: SANGER: Inhibition of human P30-OHK cell growth in a cell viability assay.

[33] = tested on: RERF-LC-MS; format: functional, cell-based; conditions: Homo sapiens;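 further: growth inhibition of human RERF-LC-MS cells, read out by a cell viability assay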
Description: SANGER: Inhibition of human RERF-LC-MS cell growth in a cell viability assay.

[34] = tested on: RXF 393; format: functional, cell-based, Homo sapiens; conditions: Homo sapiens, RXF 393;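 further: growth inhibition of human RXF 393 cells, read out with a cell viability assay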
Description: SANGER: Inhibition of human RXF393 cell growth in a cell viability assay.

[35] = tested on: SF-268; format: functional, cell-based, Homo sapiens; conditions: Homo sapiens, SF-268;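 further: growth inhibition of SF-268 cells determined with a cell viability assay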
Description: SANGER: Inhibition of human SF268 cell growth in a cell viability assay.

[36] = tested on: SJRH30; format: functional, cell-based; conditions: Homo sapiens;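 further: growth inhibition of human SJRH30 cells, read out with a cell viability assay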
Description: SANGER: Inhibition of human SJRH30 cell growth in a cell viability assay.

[37] = tested on: SK-N-DZ; format: functional, cell-based, Homo sapiens; conditions: Homo sapiens, SK-N-DZ; read-out: IC50;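 further: growth inhibition of the cancer cell line, read out through a viability assay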
Description: SANGER: Inhibition of human SK-N-DZ cell growth in a cell viability assay.

[38] = tested on: SNB-75; format: functional, cell-based, Homo sapiens; conditions: Homo sapiens, SNB-75;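 further: cell viability assay measuring growth inhibition of human SNB-75 cells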
Description: SANGER: Inhibition of human SNB75 cell growth in a cell viability assay.

[39] = tested on: A101D; format: functional, cell-based, Homo sapiens; conditions: Homo sapiens, A101D;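 further: growth inhibition of the cell line, measured with a viability assay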
Description: SANGER: Inhibition of human A101D cell growth in a cell viability assay.

[40] = tested on: A4-Fuk; format: functional, cell-based, Homo sapiens; conditions: Homo sapiens, A4-Fuk;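 further: growth inhibition of A4-Fuk cells, read out by a cell viability assay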
Description: SANGER: Inhibition of human A4-Fuk cell growth in a cell viability assay.

[41] = tested on: ACN; format: functional, cell-based, Homo sapiens; conditions: Homo sapiens, ACN;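 further: growth inhibition of the human ACN cell line, read out via cell viability testing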
Description: SANGER: Inhibition of human ACN cell growth in a cell viability assay.

[42] = tested on: AM-38; format: functional, cell-based, Homo sapiens; conditions: Homo sapiens, AM-38;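 further: growth inhibition of AM-38 cells of human origin, read out by a cell viability assay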
Description: SANGER: Inhibition of human AM-38 cell growth in a cell viability assay.

[43] = tested on: BB49-HNC; format: functional, cell-based, Homo sapiens; conditions: Homo sapiens, BB49-HNC;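 further: cell viability assay read-out, reported as inhibition of BB49-HNC cell growth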
Description: SANGER: Inhibition of human BB49-HNC cell growth in a cell viability assay.

[44] = tested on: Becker; format: functional, cell-based, Homo sapiens; conditions: Homo sapiens, Becker;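 further: growth inhibition of Becker cells, read out with a cell viability assay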
Description: SANGER: Inhibition of human Becker cell growth in a cell viability assay.

[45] = tested on: TE-5; format: functional, cell-based, Homo sapiens; conditions: Homo sapiens, TE-5;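 further: inhibition of cell growth, read out by a cell viability assay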
Description: SANGER: Inhibition of human TE-5 cell growth in a cell viability assay.

[46] = tested on: TE-6; format: functional, cell-based, Homo sapiens; conditions: Homo sapiens, TE-6;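 further: growth inhibition of TE-6 cells, read out with a cell viability assay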
Description: SANGER: Inhibition of human TE-6 cell growth in a cell viability assay.

[47] = tested on: TGBC1TKB; format: functional, cell-based, Homo sapiens; conditions: Homo sapiens, TGBC1TKB;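 further: growth inhibition of TGBC1TKB cells, read out by a cell viability assay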
Description: SANGER: Inhibition of human TGBC1TKB cell growth in a cell viability assay.

[48] = tested on: UACC-62; format: functional, cell-based; conditions: Homo sapiens;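 further: growth inhibition of human UACC-62 cells, read out by a cell viability assay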
Description: SANGER: Inhibition of human UACC-62 cell growth in a cell viability assay.

[49] = tested on: VA-ES-BJ; format: functional, cell-based, Homo sapiens; conditions: Homo sapiens, VA-ES-BJ;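 further: growth inhibition of the VA-ES-BJ cell line, read out by a cell viability assay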
Description: SANGER: Inhibition of human VA-ES-BJ cell growth in a cell viability assay.

[50] = tested on: COLO-668; format: functional, cell-based, Homo sapiens; conditions: Homo sapiens, COLO-668
Description: SANGER: Inhibition of human COLO-668 cell growth in a cell viability assay.

Question: How did the pIC50 [1] turn out when NC1(c2ccc(-c3nc4ccn5c(=O)[nH]nc5c4cc3-c3ccccc3)cc2)CCC1 [MK-2206] was run?
Answer: < 5.40

Question: And the pIC50 [2]?
Answer: < 5.40

Question: And the pIC50 [3]?
Answer: < 5.40

Question: What about the pIC50 [4] of the same molecule?
Answer: < 5.40

Question: And the pIC50 [5]?
Answer: < 5.40

Question: And the pIC50 [6]?
Answer: < 5.40

Question: And the pIC50 [7]?
Answer: < 5.40

Question: And the pIC50 [8]?
Answer: < 5.40

Question: What about the pIC50 [9] of the same molecule?
Answer: < 5.40

Question: And the pIC50 [10]?
Answer: < 5.40

Question: And the pIC50 [11]?
Answer: 5.62

Question: And the pIC50 [12]?
Answer: 5.52

Question: What about the pIC50 [13] of the same molecule?
Answer: < 5.40

Question: And the pIC50 [14]?
Answer: < 5.40

Question: What about the pIC50 [15] of the same molecule?
Answer: 6.43

Question: What about the pIC50 [16] of the same molecule?
Answer: < 5.40

Question: And the pIC50 [17]?
Answer: < 5.40

Question: And the pIC50 [18]?
Answer: < 5.40

Question: What about the pIC50 [19] of the same molecule?
Answer: 5.65

Question: What about the pIC50 [20] of the same molecule?
Answer: < 5.40

Question: And the pIC50 [21]?
Answer: < 5.40

Question: What about the pIC50 [22] of the same molecule?
Answer: < 5.40

Question: What about the pIC50 [23] of the same molecule?
Answer: 5.87

Question: What about the pIC50 [24] of the same molecule?
Answer: 5.43

Question: What about the pIC50 [25] of the same molecule?
Answer: < 5.40

Question: What about the pIC50 [26] of the same molecule?
Answer: < 5.40

Question: And the pIC50 [27]?
Answer: < 5.40

Question: And the pIC50 [28]?
Answer: < 5.40

Question: What about the pIC50 [29] of the same molecule?
Answer: < 5.40

Question: And the pIC50 [30]?
Answer: < 5.40

Question: And the pIC50 [31]?
Answer: < 5.40

Question: And the pIC50 [32]?
Answer: 5.42

Question: What about the pIC50 [33] of the same molecule?
Answer: < 5.40

Question: What about the pIC50 [34] of the same molecule?
Answer: 5.58

Question: What about the pIC50 [35] of the same molecule?
Answer: < 5.40

Question: What about the pIC50 [36] of the same molecule?
Answer: 5.43

Question: And the pIC50 [37]?
Answer: < 5.40

Question: What about the pIC50 [38] of the same molecule?
Answer: < 5.40

Question: And the pIC50 [39]?
Answer: < 5.40

Question: And the pIC50 [40]?
Answer: 6.33

Question: What about the pIC50 [41] of the same molecule?
Answer: < 5.40

Question: What about the pIC50 [42] of the same molecule?
Answer: < 5.40

Question: What about the pIC50 [43] of the same molecule?
Answer: < 5.40

Question: What about the pIC50 [44] of the same molecule?
Answer: < 5.40

Question: What about the pIC50 [45] of the same molecule?
Answer: < 5.40

Question: And the pIC50 [46]?
Answer: < 5.40

Question: What about the pIC50 [47] of the same molecule?
Answer: < 5.40

Question: What about the pIC50 [48] of the same molecule?
Answer: < 5.40

Question: What about the pIC50 [49] of the same molecule?
Answer: 6.14

Question: What about the pIC50 [50] of the same molecule?
Answer: < 5.40

Question: How did the pIC50 [1] turn out when CC1=C(/C=C/C(C)=C/C=C/C(C)=C/C(=O)O)C(C)(C)CCC1 [TRETINOIN] was run?
Answer: < 5.00

Question: What about the pIC50 [2] of the same molecule?
Answer: 5.41

Question: And the pIC50 [3]?
Answer: 6.02

Question: And the pIC50 [4]?
Answer: < 5.00

Question: What about the pIC50 [5] of the same molecule?
Answer: < 5.00

Question: And the pIC50 [6]?
Answer: 6.55

Question: And the pIC50 [7]?
Answer: < 5.00

Question: And the pIC50 [8]?
Answer: < 5.00

Question: What about the pIC50 [9] of the same molecule?
Answer: < 5.00

Question: What about the pIC50 [10] of the same molecule?
Answer: < 5.00

Question: What about the pIC50 [11] of the same molecule?
Answer: < 5.00

Question: And the pIC50 [12]?
Answer: < 5.00

Question: And the pIC50 [13]?
Answer: < 5.00

Question: And the pIC50 [14]?
Answer: < 5.00

Question: What about the pIC50 [15] of the same molecule?
Answer: 5.59

Question: And the pIC50 [16]?
Answer: < 5.00

Question: And the pIC50 [17]?
Answer: < 5.00

Question: And the pIC50 [18]?
Answer: 5.24

Question: What about the pIC50 [19] of the same molecule?
Answer: < 5.00

Question: What about the pIC50 [20] of the same molecule?
Answer: < 5.00

Question: And the pIC50 [21]?
Answer: < 5.00

Question: And the pIC50 [22]?
Answer: < 5.00

Question: What about the pIC50 [23] of the same molecule?
Answer: < 5.00

Question: What about the pIC50 [24] of the same molecule?
Answer: < 5.00

Question: And the pIC50 [25]?
Answer: < 5.00

Question: And the pIC50 [26]?
Answer: < 5.00

Question: And the pIC50 [27]?
Answer: < 5.00

Question: What about the pIC50 [28] of the same molecule?
Answer: < 5.00

Question: And the pIC50 [29]?
Answer: < 5.00

Question: What about the pIC50 [30] of the same molecule?
Answer: < 5.00

Question: What about the pIC50 [31] of the same molecule?
Answer: 5.11

Question: And the pIC50 [32]?
Answer: < 5.00

Question: And the pIC50 [33]?
Answer: < 5.00

Question: What about the pIC50 [34] of the same molecule?
Answer: < 5.00

Question: And the pIC50 [35]?
Answer: < 5.00

Question: What about the pIC50 [36] of the same molecule?
Answer: < 5.00

Question: And the pIC50 [37]?
Answer: < 5.00

Question: And the pIC50 [38]?
Answer: < 5.00

Question: What about the pIC50 [39] of the same molecule?
Answer: < 5.00

Question: And the pIC50 [40]?
Answer: < 5.00

Question: And the pIC50 [41]?
Answer: 5.78

Question: And the pIC50 [42]?
Answer: < 5.00

Question: And the pIC50 [43]?
Answer: < 5.00

Question: And the pIC50 [44]?
Answer: < 5.00

Question: And the pIC50 [45]?
Answer: < 5.00

Question: What about the pIC50 [46] of the same molecule?
Answer: < 5.00

Question: What about the pIC50 [47] of the same molecule?
Answer: < 5.00

Question: And the pIC50 [48]?
Answer: < 5.00

Question: What about the pIC50 [49] of the same molecule?
Answer: < 5.00

Question: And the pIC50 [50]?
Answer: < 5.00
